Results as given in US20210277246A1, “PROBE FOR DETECTING CARBAPENEM-RESISTANT BACTERIA AND USE THEREOF” (priority 2018, published 2021).

Assays:
Assay in all cases: MIC of carbapenems for isolates
Format in all cases: cell-based
[1] = system: Citrobacter freundii (KPC); settings: 1 isolate
[2] = system: Escherichia coli (IMP); settings: 1 isolate
[3] = system: Citrobacter freundii (NDM); settings: 1 isolate
[4] = system: Klebsiella pneumoniae (non-producer); settings: 21 isolates
[5] = system: Enterobacter cloacae (VIM); settings: 1 isolate
[6] = system: Klebsiella pneumoniae (KPC/OXA); settings: KPC/OXA co-producing, 2 isolates
[7] = system: Klebsiella pneumoniae (VIM); settings: 1 isolate
[8] = system: Escherichia coli (ESBL-producer, CTX-M); settings: 29 isolates
[9] = system: Klebsiella pneumoniae (OXA); settings: 2 isolates
[10] = system: Citrobacter freundii (OXA); settings: 1 isolate
[11] = system: Morganella morganii (NDM); settings: 1 isolate
[12] = system: Klebsiella pneumoniae (NDM/OXA); settings: NDM/OXA co-producing, 1 isolate
[13] = system: Escherichia coli (non-producer); settings: 32 isolates
[14] = system: Enterobacter amnigenus (non-CP-CRE); settings: Lelliottia amnigena, 4 isolates
[15] = system: Klebsiella pneumoniae (NDM); settings: 1 isolate
[16] = system: Escherichia coli (OXA); settings: 3 isolates
[17] = system: Citrobacter freundii (non-CP-CRE); settings: 1 isolate
[18] = system: Klebsiella oxytoca (VIM); settings: 1 isolate
[19] = system: Enterobacter cloacae (NDM); settings: 2 isolates
[20] = system: Klebsiella pneumoniae (GES); settings: 1 isolate
[21] = system: Klebsiella aerogenes (KPC); settings: 1 isolate
[22] = system: Klebsiella pneumoniae (ESBL-producer, CTX-M); settings: 24 isolates
[23] = system: Escherichia coli (non-CP-CRE); settings: 8 isolates
[24] = system: Klebsiella pneumoniae (non-CP-CRE); settings: 22 isolates
[25] = system: Escherichia coli (KPC); settings: 3 isolates
[26] = system: Escherichia coli (NDM); settings: 4 isolates
[27] = system: Klebsiella oxytoca (KPC); settings: 1 isolate
[28] = system: Klebsiella aerogenes (non-CP-CRE); settings: 3 isolates

Compound	MIC [1]	MIC [2]	MIC [3]	MIC [4]	MIC [5]	MIC [7]	MIC [9]	MIC [10]	MIC [11]	MIC [12]	MIC [13]	MIC [14]	MIC [15]	MIC [16]	MIC [17]	MIC [18]	MIC [19]	MIC [20]	MIC [21]	MIC [22]	other results
C[C@@H](O)[C@H]1C(=O)N2C(C(=O)O)=C(SCCN=CN)C[C@H]12 [IPM, imipenem]	> 16 mg/L	1 mg/L	8 mg/L	0.25 to 1 mg/L	4 mg/L	> 16 mg/L	2 to 4 mg/L	2 mg/L	> 16 mg/L	4 mg/L	0.25 to 0.5 mg/L	8 to 16 mg/L	> 16 mg/L	0.5 to 8 mg/L	1 mg/L	2 mg/L	> 16 mg/L	> 16 mg/L	> 16 mg/L	0.25 to 1 mg/L	MIC [6]: 4 to 16 mg/L; MIC [8]: 0.25 to 1 mg/L; MIC [23]: 0.5 to 16 mg/L; MIC [24]: 0.5 to 16 mg/L; MIC [25]: 2 to 8 mg/L; MIC [26]: 8 to 16 mg/L; MIC [27]: > 16 mg/L
C[C@@H](O)[C@H]1C(=O)N2C(C(=O)O)=C(S[C@@H]3CN[C@H](C(=O)N(C)C)C3)[C@H](C)[C@H]12 [MEM, meropenem]	8 mg/L	1 mg/L	16 mg/L	≤ 0.25 mg/L	2 mg/L	> 16 mg/L	0.5 to 16 mg/L	0.5 mg/L	4 mg/L	4 mg/L	≤ 0.25 mg/L	2 to 8 mg/L	> 16 mg/L	0.25 to 4 mg/L	0.5 mg/L	1 mg/L	> 16 mg/L	> 16 mg/L	16 mg/L	≤ 0.25 mg/L	MIC [28]: 0.5 to 16 mg/L; MIC [23]: 0.25 to 8 mg/L; MIC [24]: 0.5 to 8 mg/L; MIC [25]: 4 mg/L; MIC [26]: > 16 mg/L; MIC [27]: > 16 mg/L
